# Measurements: PubChem BioAssay AID1259407 (Chemical Carcinogenesis Research Information System (CCRIS), 2018)
# Calls of active or inactive are those of the source. How the calls were made is not given here.
# Test system: CCRIS mutagenicity, Ames/micronucleus/aberration tests
# Test: CCRIS mutagenicity studies
smiles,measurement,setting,value
CC(C)CON=O,mutagenic call,"Test System: AMES SALMONELLA TYPHIMURIUM, Strain/Indicator: TA98, Metabolic Activation: HAMSTER, LIVER, S-9, AROCLOR 1254 (5 OR 10%), Method: PREINCUBATION",inactive; negative
same,mutagenic call,"Test System: AMES SALMONELLA TYPHIMURIUM, Strain/Indicator: TA98, Metabolic Activation: HAMSTER, LIVER, S-9, AROCLOR 1254 (30%), Method: PREINCUBATION",inactive; negative
same,mutagenic call,"Test System: AMES SALMONELLA TYPHIMURIUM, Strain/Indicator: TA98, Metabolic Activation: HAMSTER, LIVER, S-9, AROCLOR 1254, Method: STANDARD PLATE",inactive; negative
same,mutagenic call,"Test System: AMES SALMONELLA TYPHIMURIUM, Strain/Indicator: TA98, Metabolic Activation: NONE, Method: DESICCATOR",inactive; negative
same,mutagenic call,"Test System: AMES SALMONELLA TYPHIMURIUM, Strain/Indicator: TA98, Metabolic Activation: NONE, Method: FLUCTUATION (MICROTITER)",inactive; negative
same,mutagenic call,"Test System: AMES SALMONELLA TYPHIMURIUM, Strain/Indicator: TA98, Metabolic Activation: NONE, Method: PREINCUBATION",inactive; negative
same,mutagenic call,"Test System: AMES SALMONELLA TYPHIMURIUM, Strain/Indicator: TA98, Metabolic Activation: NONE, Method: STANDARD PLATE",inactive; negative
same,mutagenic call,"Test System: AMES SALMONELLA TYPHIMURIUM, Strain/Indicator: TA98, Metabolic Activation: RAT LIVER S-9, AROCLOR 1254, Method: FLUCTUATION (MICROTITER)",inactive; negative
same,mutagenic call,"Test System: AMES SALMONELLA TYPHIMURIUM, Strain/Indicator: TA98, Metabolic Activation: RAT, LIVER, S-9, AROCLOR 1254 (5 OR 10%), Method: PREINCUBATION",inactive; negative
same,mutagenic call,"Test System: AMES SALMONELLA TYPHIMURIUM, Strain/Indicator: TA98, Metabolic Activation: RAT, LIVER, S-9, AROCLOR 1254 (30%), Method: PREINCUBATION",inactive; negative
same,mutagenic call,"Test System: AMES SALMONELLA TYPHIMURIUM, Strain/Indicator: TA98, Metabolic Activation: RAT, LIVER, S-9, AROCLOR 1254, Method: DESICCATOR",inactive; negative
same,mutagenic call,"Test System: AMES SALMONELLA TYPHIMURIUM, Strain/Indicator: TA98, Metabolic Activation: RAT, LIVER, S-9, AROCLOR 1254, Method: STANDARD PLATE",inactive; negative
same,mutagenic call,"Test System: AMES SALMONELLA TYPHIMURIUM, Strain/Indicator: TA100, Metabolic Activation: HAMSTER, LIVER, S-9, AROCLOR 1254 (10%), Method: PREINCUBATION",active; positive
same,mutagenic call,"Test System: AMES SALMONELLA TYPHIMURIUM, Strain/Indicator: TA100, Metabolic Activation: HAMSTER, LIVER, S-9, AROCLOR 1254 (30%), Method: PREINCUBATION",active; positive
same,mutagenic call,"Test System: AMES SALMONELLA TYPHIMURIUM, Strain/Indicator: TA100, Metabolic Activation: HAMSTER, LIVER, S-9, AROCLOR 1254, Method: STANDARD PLATE",active; positive
same,mutagenic call,"Test System: AMES SALMONELLA TYPHIMURIUM, Strain/Indicator: TA100, Metabolic Activation: NONE, Method: PREINCUBATION",inactive; negative
same,mutagenic call,"Test System: AMES SALMONELLA TYPHIMURIUM, Strain/Indicator: TA100, Metabolic Activation: NONE, Method: STANDARD PLATE",active; positive
same,mutagenic call,"Test System: AMES SALMONELLA TYPHIMURIUM, Strain/Indicator: TA100, Metabolic Activation: RAT, LIVER, S-9, AROCLOR 1254 (10%), Method: PREINCUBATION",active; positive
same,mutagenic call,"Test System: AMES SALMONELLA TYPHIMURIUM, Strain/Indicator: TA100, Metabolic Activation: RAT, LIVER, S-9, AROCLOR 1254 (30%), Method: PREINCUBATION",active; positive
same,mutagenic call,"Test System: AMES SALMONELLA TYPHIMURIUM, Strain/Indicator: TA100, Metabolic Activation: RAT, LIVER, S-9, AROCLOR 1254, Method: DESICCATOR",active; positive
same,mutagenic call,"Test System: AMES SALMONELLA TYPHIMURIUM, Strain/Indicator: TA100, Metabolic Activation: RAT, LIVER, S-9, AROCLOR 1254, Method: STANDARD PLATE",active; positive
same,mutagenic call,"Test System: AMES SALMONELLA TYPHIMURIUM, Strain/Indicator: TA1535, Metabolic Activation: HAMSTER, LIVER, S-9, AROCLOR 1254 (10%), Method: PREINCUBATION",active; positive
same,mutagenic call,"Test System: AMES SALMONELLA TYPHIMURIUM, Strain/Indicator: TA1535, Metabolic Activation: HAMSTER, LIVER, S-9, AROCLOR 1254 (30%), Method: PREINCUBATION",active; positive
same,mutagenic call,"Test System: AMES SALMONELLA TYPHIMURIUM, Strain/Indicator: TA1535, Metabolic Activation: HAMSTER, LIVER, S-9, AROCLOR 1254, Method: STANDARD PLATE",active; positive
same,mutagenic call,"Test System: AMES SALMONELLA TYPHIMURIUM, Strain/Indicator: TA1535, Metabolic Activation: NONE, Method: DESICCATOR",active; positive
same,mutagenic call,"Test System: AMES SALMONELLA TYPHIMURIUM, Strain/Indicator: TA1535, Metabolic Activation: NONE, Method: STANDARD PLATE",active; positive
same,mutagenic call,"Test System: AMES SALMONELLA TYPHIMURIUM, Strain/Indicator: TA1535, Metabolic Activation: RAT, LIVER, S-9, AROCLOR 1254 (10%), Method: PREINCUBATION",inactive; negative
same,mutagenic call,"Test System: AMES SALMONELLA TYPHIMURIUM, Strain/Indicator: TA1535, Metabolic Activation: RAT, LIVER, S-9, AROCLOR 1254 (30%), Method: PREINCUBATION",active; positive
same,mutagenic call,"Test System: AMES SALMONELLA TYPHIMURIUM, Strain/Indicator: TA1535, Metabolic Activation: RAT, LIVER, S-9, AROCLOR 1254, Method: DESICCATOR",active; positive
same,mutagenic call,"Test System: AMES SALMONELLA TYPHIMURIUM, Strain/Indicator: TA1535, Metabolic Activation: RAT, LIVER, S-9, AROCLOR 1254, Method: PREINCUBATION",active; positive
same,mutagenic call,"Test System: AMES SALMONELLA TYPHIMURIUM, Strain/Indicator: TA1535, Metabolic Activation: RAT, LIVER, S-9, AROCLOR 1254, Method: STANDARD PLATE",active; positive
same,mutagenic call,"Test System: AMES SALMONELLA TYPHIMURIUM, Strain/Indicator: TA1537, Metabolic Activation: HAMSTER, LIVER, S-9, AROCLOR 1254 (10%), Method: PREINCUBATION",inactive; negative
same,mutagenic call,"Test System: AMES SALMONELLA TYPHIMURIUM, Strain/Indicator: TA1537, Metabolic Activation: HAMSTER, LIVER, S-9, AROCLOR 1254, Method: STANDARD PLATE",inactive; negative
same,mutagenic call,"Test System: AMES SALMONELLA TYPHIMURIUM, Strain/Indicator: TA1537, Metabolic Activation: NONE, Method: FLUCTUATION (MICROTITER)",inactive; negative
same,mutagenic call,"Test System: AMES SALMONELLA TYPHIMURIUM, Strain/Indicator: TA1537, Metabolic Activation: NONE, Method: PREINCUBATION",inactive; negative
same,mutagenic call,"Test System: AMES SALMONELLA TYPHIMURIUM, Strain/Indicator: TA1537, Metabolic Activation: NONE, Method: STANDARD PLATE",inactive; negative
same,mutagenic call,"Test System: AMES SALMONELLA TYPHIMURIUM, Strain/Indicator: TA1537, Metabolic Activation: RAT LIVER S-9, AROCLOR 1254, Method: FLUCTUATION (MICROTITER)",inactive; negative
same,mutagenic call,"Test System: AMES SALMONELLA TYPHIMURIUM, Strain/Indicator: TA1537, Metabolic Activation: RAT, LIVER, S-9, AROCLOR 1254 (10%), Method: PREINCUBATION",inactive; negative
same,mutagenic call,"Test System: AMES SALMONELLA TYPHIMURIUM, Strain/Indicator: TA1537, Metabolic Activation: RAT, LIVER, S-9, AROCLOR 1254, Method: STANDARD PLATE",inactive; negative
same,mutagenic call,"Test System: AMES SALMONELLA TYPHIMURIUM, Strain/Indicator: TA7001, Metabolic Activation: NONE, Method: FLUCTUATION (MICROTITER)",inactive; negative
same,mutagenic call,"Test System: AMES SALMONELLA TYPHIMURIUM, Strain/Indicator: TA7001, Metabolic Activation: RAT LIVER S-9, AROCLOR 1254, Method: FLUCTUATION (MICROTITER)",inactive; negative
same,mutagenic call,"Test System: AMES SALMONELLA TYPHIMURIUM, Strain/Indicator: TA7002, Metabolic Activation: NONE, Method: FLUCTUATION (MICROTITER)",inactive; negative
same,mutagenic call,"Test System: AMES SALMONELLA TYPHIMURIUM, Strain/Indicator: TA7002, Metabolic Activation: RAT LIVER S-9, AROCLOR 1254, Method: FLUCTUATION (MICROTITER)",inactive; negative
same,mutagenic call,"Test System: AMES SALMONELLA TYPHIMURIUM, Strain/Indicator: TA7003, Metabolic Activation: NONE, Method: FLUCTUATION (MICROTITER)",inactive; negative
same,mutagenic call,"Test System: AMES SALMONELLA TYPHIMURIUM, Strain/Indicator: TA7003, Metabolic Activation: RAT LIVER S-9, AROCLOR 1254, Method: FLUCTUATION (MICROTITER)",inactive; negative
same,mutagenic call,"Test System: AMES SALMONELLA TYPHIMURIUM, Strain/Indicator: TA7004, Metabolic Activation: NONE, Method: FLUCTUATION (MICROTITER)",inactive; negative
same,mutagenic call,"Test System: AMES SALMONELLA TYPHIMURIUM, Strain/Indicator: TA7004, Metabolic Activation: RAT LIVER S-9, AROCLOR 1254, Method: FLUCTUATION (MICROTITER)",inactive; negative
same,mutagenic call,"Test System: AMES SALMONELLA TYPHIMURIUM, Strain/Indicator: TA7005, Metabolic Activation: NONE, Method: FLUCTUATION (MICROTITER)",inactive; negative
same,mutagenic call,"Test System: AMES SALMONELLA TYPHIMURIUM, Strain/Indicator: TA7005, Metabolic Activation: RAT LIVER S-9, AROCLOR 1254, Method: FLUCTUATION (MICROTITER)",inactive; negative
same,mutagenic call,"Test System: AMES SALMONELLA TYPHIMURIUM, Strain/Indicator: TA7006, Metabolic Activation: NONE, Method: FLUCTUATION (MICROTITER)",inactive; negative
same,mutagenic call,"Test System: AMES SALMONELLA TYPHIMURIUM, Strain/Indicator: TA7006, Metabolic Activation: RAT LIVER S-9, AROCLOR 1254, Method: FLUCTUATION (MICROTITER)",inactive; negative
same,mutagenic call,"Test System: MOUSE LYMPHOMA, Strain/Indicator: L5178Y (TK+/TK-), Metabolic Activation: NONE, Method: SUSPENSION/PLATE",active; positive
same,mutagenic call,"Test System: MOUSE LYMPHOMA, Strain/Indicator: L5178Y (TK+/TK-), Metabolic Activation: RAT, LIVER, S-9, AROCLOR 1254, Method: SUSPENSION/PLATE",active; positive
same,mutagenic call,"Test System: Mouse lymphoma, Strain/Indicator: L5178Y (tk+/tk-), Metabolic Activation: Rat, Liver, S-9, Aroclor 1254, Method: Suspension/plate",active; positive
